From patent US20110183978A1, “Phenylpyri(mi)dinylazoles” (Bayer CropScience AG, priority 2009, published 2011) come the findings set out here.

Molecules are shown by their SMILES. Read-outs that look alike come from different tables or passages of the source.

Data set [1] deals with Fusarium graminearum. In words: microbe, parasite or virus in culture. It counts as cell-based.
The test system of the next data set is Fusarium proliferatum. The experiment in a line: Example I: production of fumonisin FB1 by Fusarium proliferatum (microtitre plates). It counts as cell-based. To be noted: 120 h.
The subject of a further data set is Rhynchosporium secalis. The experiment in a line: Example S: in vivo test on Rhynchosporium secalis (leaf scald in barley/protective). To be noted: 336 h, barley, protective, 1000 ppm active substance, assessed 14 days after inoculation, read-out: % Wirkungsgrad (activity level). As for the experimental part:
Solvent: 49 parts by weight N,N-dimethylacetamide Emulsifier: 1 part by weight alkylaryl polyglycol ethers For the preparation of a suitable active substance preparation, 1 part by weight of active substance is mixed with the stated quantities of solvent and emulsifier and the concentrate is diluted to the desired concentration with water. For the testing for protective activity, young plants are sprayed with the active substance preparation at the stated application dosage. After drying of the spray coating, the plants are sprayed with spores with a spore suspension of Rhynchosporium secalis. […] 14 days after the inoculation, the assessment takes place.

A further data set relates to Gibberella zeae. It counts as in vivo. To be noted: 250 ppm; rice, protective; assessment 5 days after inoculation.
The subject of a further data set is Sphaerotheca fuliginea. In words: Example L: in vivo test on Sphaerotheca fuliginea (powdery mildew on cucumber/protective). To be noted: Podosphaera fuliginea, 168 h, cucumber, protective, assessment 7 days after inoculation, read-out: % Wirkungsgrad. A digest of the protocol:
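Young cucumber plants sprayed at stated dosage with compound in DMF/alkylaryl polyglycol ether emulsifier diluted in water; inoculated with S. fuliginea spores one day later. Kept in greenhouse at 70% relative humidity, 23° C; protective activity assessed 7 days after inoculation.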

The next data set has as its system Venturia inaequalis. In words: Example O: in vivo test on Venturia inaequalis (apple scab/protective). To be noted: 240 h, protective, assessment 10 days after inoculation, read-out: % Wirkungsgrad. A digest of the protocol:
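Young plants received a preventive spray of compound formulated as an emulsifier-containing aqueous dilution at the given application rate, then were inoculated with apple scab fungus. Disease was scored 10 days post-inoculation.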

The next data set concerns Pyricularia oryzae. In words: whole plant or invertebrate. It counts as in vivo. To be noted: 120 h, read-out: % Activity level.
Another data set has as its system Pythium ultimum. In words: Example U: in vivo test on Pythium ultimum (root rot/damping off in cotton/seed treatment). The following applies: 50 g/dt; cotton seed treatment; emergence counted after 7 days. As for the experimental part: The test was performed under greenhouse conditions. Cotton seeds, treated with an active compound according to the invention or a combination of active compounds according to the invention were sown in 6*6 cm size vessels, in a mixture of steamed field earth and sand (1:1). The test compound/s were dissolved in N-methyl-2-pyrrolidone and diluted to the desired concentration with water. The plants were grown at 10° C. Perlite was inoculated with mycelium from Pythium ultimum. 1 mL of the infected perlite was distributed between the treated cotton seeds. […] The assessment was made by counting the emergence.

In data set [2] the test system is Fusarium nivale (var. majus). In words: whole plant or invertebrate. It counts as in vivo. The following applies: Microdochium nivale, in Triticum aestivum, 120 h, read-out: % Wirkungsgrad (activity level).
The subject of another data set is Rhizoctonia solani. The experiment in a line: Example W: in vivo test on Rhizoctonia solani (sheath blight in rice/protective). The following applies: 96 h, rice, protective, 250 ppm active substance, assessed 4 days after inoculation, read-out: % Activity level. The method, boiled down:
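Young rice plants sprayed protectively with compound in acetone/alkylaryl polyglycol ether emulsion diluted in water at stated dosage. Inoculated with R. solani hyphae one day later; disease assessed 4 days post-inoculation.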

The subject of another data set is Alternaria solani. In words: Example M: in vivo test on Alternaria solani (leaf blotch disease/tomato/protective). To be noted: 168 h, tomato, protective, 500 ppm active substance, assessed 7 days after inoculation, read-out: % Wirkungsgrad (activity level). The method, boiled down:
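Alternaria solani infection on tomato scored 7 days post-inoculation. Before inoculation, young plants received a protective spray at the stated application dose; formulation was compound mixed with N,N-dimethylformamide and emulsifier, water-diluted.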

The test system of another data set is Cochliobolus miyabeanus. The experiment in a line: Example X: in vivo test on Cochliobolus miyabeanus (brown spot disease, rice/protective). To be noted: Bipolaris oryzae, 96 h, read-out: % Activity level.
The next data set can be described thus: physchem. To be noted: LogPA.
The next data set relates to Leptosphaeria nodorum. In words: Example Q: in vivo test on Leptosphaeria nodorum (glume blotch in wheat/protective). To be noted: Parastagonospora nodorum, 192 h, wheat, protective, assessment 8 days after inoculation, read-out: % Wirkungsgrad. A digest of the protocol:
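Protective test: young wheat plants sprayed with compound formulated in N,N-dimethylacetamide plus alkylaryl polyglycol ether emulsifier, diluted in water to the stated dose. After drying, plants inoculated with L. nodorum spore suspension; disease assessed 8 days post-inoculation.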

A further data set deals with Septoria tritici. In words: Example R: in vivo test on Septoria tritici (leaf blotch in wheat/protective). To be noted: Zymoseptoria tritici, 504 h, wheat, protective, 1000 ppm active substance, assessed 21 days after inoculation, read-out: % Wirkungsgrad (activity level). A digest of the protocol: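 Protective test: young wheat plants sprayed with compound in N,N-dimethylacetamide/alkylaryl polyglycol ether emulsifier diluted in water, dried, then inoculated with Septoria tritici spore suspension. Disease assessed 21 days after inoculation.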

Data set [3] has as its system Fusarium graminearum. In words: whole plant or invertebrate. It counts as in vivo. To be noted: in Hordeum vulgare, 120 h, read-out: % Wirkungsgrad (activity level).
For the next data set, the system named is Botrytis cinerea. The experiment in a line: Example P: in vivo test on Botrytis cinerea (gray mould on bean/protective). The following applies: 48 h, bean, protective, 250 ppm active substance, assessed 2 days after inoculation, read-out: % Wirkungsgrad (activity level). A digest of the protocol: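 Infection blotch size on leaves was scored 2 days after placing 2 Botrytis-colonised agar pieces per leaf. Inoculation followed drying of a protective spray applied to young plants at the stated dosage. Spray was prepared by diluting compound with solvent and alkylaryl polyglycol ether emulsifier in water.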

A further data set has as its system Plasmopara viticola. The experiment in a line: Example N: in vivo test on Plasmopara viticola (downy mildew, vine/protective). To be noted: 144 h, vine, protective, assessment 6 days after inoculation, read-out: % Wirkungsgrad. A digest of the protocol:
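Assessment of downy mildew on vines took place 6 days post-inoculation, after 1 day of moist incubation. Before infection, the young plants received a protective spray of compound emulsified with alkylaryl polyglycol ethers and diluted with water to the stated application rate.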

Consider `CCC(=O)Nc1cc(-c2cn(CC)nc2-c2ccc(F)cc2)ccn1` [Compound 198], for which the inhibition at 50 µM with Fusarium graminearum [1] (72 h, read-out: % Inhibition des Pilzwachstums bei 50 μM) turned out to be 100%; in the data set on Fusarium graminearum [1] (168 h, read-out: % Inhibition der DON/AcDON produktion bei 50 μM), 100%; in the data set with Fusarium proliferatum (Fusarium proliferatum growth, OD 620, 5 days, read-out: % Inhibition des Pilzwachstums bei 50 μM), 99%; with Fusarium proliferatum (Fusarium proliferatum, 5 days at 20° C., HPLC-MS/MS, read-out: % Inhibition der FB1 produktion bei 50 μM), 100%. Also, the pest or weed control at 1000 ppm in the data set with Rhynchosporium secalis stood at 90%; in data set [2] it was 100%; in the data set on Leptosphaeria nodorum, 100%; in the data set on Septoria tritici, 100%; in the data set with Fusarium graminearum [3], 100%. Further, the “% Activity level” value came to 80% in the data set with Gibberella zeae and 88% in the data set with Pythium ultimum. Moreover, the pest or weed control at 500 ppm is 99% in the data set on Sphaerotheca fuliginea and 93% with Alternaria solani. Moreover, the pest or weed control at 100 ppm in the data set on Venturia inaequalis came to 96%; in the data set on Plasmopara viticola, 92%. Moreover, the pest or weed control at 250 ppm is 85% in the data set on Pyricularia oryzae, 88% in the data set on Rhizoctonia solani, 90% in the data set on Cochliobolus miyabeanus and 99% in the data set on Botrytis cinerea. Also, the chromatographic logP in “physchem” came out at 1.82.
